Seven compounds from PMC12045974, “T cell toxicity induced by tigecycline binding to the mitochondrial ribosome” (Nature Communications, 2025) can be followed below.

Where “and” joins values, the source holds several entries; their conditions need not be identical. Identical values can stand only once. Like-named read-outs stand apart in the source and are kept apart here.

One experiment has as its system PBMCs. As to the kind of experiment: Cell viability assay (CCK-8), PBMCs. The format is cell-based, human. Conditions: Homo sapiens, PBMC, 72 h, PBMCs, read-out: cell vialibity normalized to Vehicle (DMSO). The protocol:
Buffy coats were ordered from anonymous blood donors at […]. […] Cells were seeded in 96-well plates ranging from 2000 to 15,000 cells per well depending on different cell lines and treated with antibiotics in serial dilutions for 72 h (120 h for the preliminary assays) in a humidified incubator (37 °C, 5% CO2) in 100 μl medium (DMEM with 10% FBS, 2.05 mM L-glutamine (Sigma) for Hek293 and Hela; RPMI-1640 with 10% FBS, 2.05 mM L-glutamine (Sigma), and 55 μM 2-ME (Gibco) for Jurkat T cells and PBMCs). Based on preliminary tests, the number of cells per well was optimized to 2000 for Hela and Hek293, 6000 for Jurkat T cells, and 15,000 for PBMCs. The stocks of antibiotics were prepared by dissolving in DMSO. As control, the same amount of DMSO was added to the non-treated groups. Serial drug dilutions were prepared in the corresponding medium to provide a total of 9 concentrations up to 300 μM for tetracyclines and up to 900 μM for additional bacterial protein synthesis inhibitors. After drug treatment, 10% CCK-8 (Cell Counting Kit-8, Sigma Aldrich) (10 μl per well) of the total volume was added to the cells and incubated for 1-4 h depending on cell lines (1 h for Hela and Hek293; 3 h for Jurkat T cells; 4 h for PBMCs) before the evaluation of the effect of antibiotics on cell viability. […] Results were visually confirmed under the light microscope. Each treatment was performed in technical repeats. Dose-response curves were plotted, mean ± SEM was shown, and half maximal inhibitory concentration (IC50) values were calculated in GraphPad Prism.

A further experiment concerns Jurkat T cells. As to the kind of experiment: Cell viability assay (CCK-8), Jurkat T cells. The format is cell-based, human. To be noted: Jurkat, 72 h, Fig. 1A, in % (unit assumed). The protocol:
Cells were seeded in 96-well plates ranging from 2000 to 15,000 cells per well depending on different cell lines and treated with antibiotics in serial dilutions for 72 h (120 h for the preliminary assays) in a humidified incubator (37 °C, 5% CO2) in 100 μl medium (DMEM with 10% FBS, 2.05 mM L-glutamine (Sigma) for Hek293 and Hela; RPMI-1640 with 10% FBS, 2.05 mM L-glutamine (Sigma), and 55 μM 2-ME (Gibco) for Jurkat T cells and PBMCs). Based on preliminary tests, the number of cells per well was optimized to 2000 for Hela and Hek293, 6000 for Jurkat T cells, and 15,000 for PBMCs. The stocks of antibiotics were prepared by dissolving in DMSO. As control, the same amount of DMSO was added to the non-treated groups. Serial drug dilutions were prepared in the corresponding medium to provide a total of 9 concentrations up to 300 μM for tetracyclines and up to 900 μM for additional bacterial protein synthesis inhibitors. After drug treatment, 10% CCK-8 (Cell Counting Kit-8, Sigma Aldrich) (10 μl per well) of the total volume was added to the cells and incubated for 1–4 h depending on cell lines (1 h for Hela and Hek293; 3 h for Jurkat T cells; 4 h for PBMCs) before the evaluation of the effect of antibiotics on cell viability. […] Results were visually confirmed under the light microscope. Each treatment was performed in technical repeats. Dose-response curves were plotted, mean ± SEM was shown, and half maximal inhibitory concentration (IC50) values were calculated in GraphPad Prism.

Take `C=C[C@]1(C)C[C@@H](OC(=O)CSCCN(CC)CC)[C@]2(C)[C@H](C)CC[C@]3(CCC(=O)[C@H]32)[C@@H](C)[C@@H]1O` [Tiamulin, tiamulin]: in the experiment with PBMCs (Fig. 1B), the viability at 0.411523 µM amounted to 103% and the viability at 300 µM was determined as 7.89%. In addition, the viability at 900 µM with PBMCs (dose 900 μM, Fig. 1B) turned out to be 3.99%.
With `CC(=O)NC[C@H]1CN(c2ccc(N3CCOCC3)c(F)c2)C(=O)O1` [Linezolid, linezolid], the viability at 300 µM with PBMCs (Fig. 1B) was 24.4%.
In the case of `CN(C)c1ccc(O)c2c1C[C@H]1C[C@H]3[C@H](N(C)C)C(O)=C(C(N)=O)C(=O)[C@@]3(O)C(O)=C1C2=O` [Minocycline, minocycline], the “cell vialibity normalized to Vehicle (DMSO)” value (“cell vialibity normalized” for short) in the experiment on Jurkat T cells (dose 0.0457247 μM) was 100.385 and 100.531 and 101.165; in the experiment on Jurkat T cells (dose 0.411523 μM), 98.2906 and 97.4244 and 90.1654; with Jurkat T cells (dose 1.23457 μM) it was 99.8718 and 96.2387 and 90.2372; with Jurkat T cells (dose 3.7037 μM), 105.513 and 101.758 and 90.3163; with Jurkat T cells (dose 11.1111 μM), 49.6581 and 44.3173 and 49.0295; in the experiment on Jurkat T cells (dose 33.3333 μM), 19.6154 and 18.6836 and 25.6578. Moreover, the “cell vialibity normalized” value in the experiment on Jurkat T cells (dose 100 μM) was 12.3932 and 10.5887 and 15.9454; in the experiment with Jurkat T cells (dose 300 μM), 6.111 and 6.95 and 5.018. In addition, the viability at 0.0457247 µM with PBMCs (Fig. 1A) came to 97.4%. Moreover, in the experiment on PBMCs (Fig. 1A), the viability at 0.137174 µM was 98.5%. Besides, in the experiment on PBMCs (Fig. 1A), the viability at 0.411523 µM was 100%. For the same compound, in the experiment on PBMCs (Fig. 1A), the viability at 1.23457 µM came out at 95.2%. Also, the viability at 3.7037 µM with PBMCs (dose 3.7037 μM, Fig. 1A) worked out at 91.6%. Further, the viability at 11.1111 µM in the experiment on PBMCs (Fig. 1A) amounted to 87.6%. Further, in the experiment with PBMCs (dose 33.3333 μM, Fig. 1A), the viability at 33.3333 µM came out at 81.2%. Besides, the viability at 100 µM with PBMCs (Fig. 1A) was determined as 46.6%.
Consider `CN(C)[C@@H]1C(O)=C(C(N)=O)C(=O)[C@@]2(O)C(O)=C3C(=O)c4c(O)cccc4[C@@](C)(O)[C@H]3C[C@@H]12` [Tetracycline, tetracycline], for which the “cell vialibity normalized” value in the experiment with Jurkat T cells (dose 0.0457247 μM) is 102.181 and 108.663 and 114.096; in the experiment with Jurkat T cells (dose 0.137174 μM), 99.1611 and 103.998 and 102.471; with Jurkat T cells (dose 0.411523 μM) it was 100 and 102.207 and 96; with Jurkat T cells (dose 1.23457 μM) it was 99.3708 and 109.246 and 98.7059; with Jurkat T cells (dose 3.7037 μM), 100.377 and 106.955 and 130.118; with Jurkat T cells (dose 11.1111 μM), 115.478 and 121.824 and 122.353. Moreover, in the experiment with Jurkat T cells (dose 100 μM), the “cell vialibity normalized” value was 13.3809 and 13.536 and 12.3529. Moreover, the viability at 0.0457247 µM in the experiment on PBMCs (Fig. 1A) came out at 96%. In addition, the viability at 100 µM in the experiment on PBMCs (Fig. 1A) amounted to 42.5%. Moreover, in the experiment on PBMCs (Fig. 1A), the viability at 300 µM is 28.2%.
Consider `C=C1c2cccc(O)c2C(=O)C2=C(O)[C@]3(O)C(=O)C(C(N)=O)=C(O)[C@@H](N(C)C)[C@@H]3[C@@H](O)[C@H]12` [Methacycline, methacycline], for which the “cell vialibity normalized” value in the experiment on Jurkat T cells (dose 0.0457247 μM) was 104.711 and 102.732 and 106.75; in the experiment on Jurkat T cells (dose 0.137174 μM), 102.378 and 109.807 and 118.32; with Jurkat T cells (dose 0.411523 μM), 103.32 and 108.822 and 104.75; in the experiment on Jurkat T cells (dose 1.23457 μM), 108.031 and 101.209 and 106; with Jurkat T cells (dose 3.7037 μM), 100.628 and 106.046 and 105.75; with Jurkat T cells (dose 11.1111 μM), 118.035 and 121.182 and 107.162. The “cell vialibity normalized” value is 32.5707 and 32.2436 and 34.2424 with Jurkat T cells (dose 33.3333 μM); 20.0538 and 20.6001 and 28.3196 with Jurkat T cells (dose 100 μM); 11.2607 and 14.1961 and 17.0248 with Jurkat T cells (dose 300 μM). For the same compound, the viability at 0.0457247 µM in the experiment on PBMCs (Fig. 1A) was determined as 105%. The viability at 0.411523 µM with PBMCs (Fig. 1A) was 102%. For the same compound, in the experiment on PBMCs (Fig. 1A), the viability at 100 µM came to 30%.
`CCC[C@@H]1C[C@@H](C(=O)N[C@@H]([C@H]2O[C@H](SC)[C@H](O)[C@@H](O)[C@H]2O)[C@H](C)Cl)N(C)C1` [Clindamycin, clindamycin]: in the experiment with PBMCs (Fig. 1B), the viability at 0.137174 µM turned out to be 97%, the viability at 0.411523 µM was 95.8%, the viability at 1.23457 µM was found to be 92.3% and the viability at 11.1111 µM came to 102%. For the same compound, in the experiment on PBMCs (Fig. 1B), the viability at 100 µM worked out at 94.6% and the viability at 300 µM stood at 63%.
As to `CC[C@H]1OC(=O)[C@H](C)[C@@H](O[C@H]2C[C@@](C)(OC)[C@@H](O)[C@H](C)O2)[C@H](C)[C@@H](O[C@@H]2O[C@H](C)C[C@H](N(C)C)[C@H]2O)[C@](C)(O)C[C@@H](C)CN(C)[C@H](C)[C@@H](O)[C@]1(C)O` [Azithromycin, azithromycin], in the experiment with PBMCs (Fig. 1B), the viability at 1.23457 µM was found to be 91% and the viability at 11.1111 µM amounted to 82%.
